The record followed here is ChEMBL document CHEMBL3525934 (Drug Metab Dispos, 2013).

Type in all cases: ADME
Settings in all cases: 0.5 h

The target of data set [1] is T1, Cytochrome P450 2C9 (Homo sapiens, UniProt P11712). Description: Drug metabolism in supersomes expressing human recombinant CYP2C9 assessed as enzyme-mediated clozapine-N-oxide metabolite formation at 10 uM after 30 mins measured per nmol of P450 by HPLC analysis.
Data set [2] deals with T2, Cytochrome P450 1B1 (Homo sapiens, UniProt Q16678).
T2 sequence (Q16678 whole entry): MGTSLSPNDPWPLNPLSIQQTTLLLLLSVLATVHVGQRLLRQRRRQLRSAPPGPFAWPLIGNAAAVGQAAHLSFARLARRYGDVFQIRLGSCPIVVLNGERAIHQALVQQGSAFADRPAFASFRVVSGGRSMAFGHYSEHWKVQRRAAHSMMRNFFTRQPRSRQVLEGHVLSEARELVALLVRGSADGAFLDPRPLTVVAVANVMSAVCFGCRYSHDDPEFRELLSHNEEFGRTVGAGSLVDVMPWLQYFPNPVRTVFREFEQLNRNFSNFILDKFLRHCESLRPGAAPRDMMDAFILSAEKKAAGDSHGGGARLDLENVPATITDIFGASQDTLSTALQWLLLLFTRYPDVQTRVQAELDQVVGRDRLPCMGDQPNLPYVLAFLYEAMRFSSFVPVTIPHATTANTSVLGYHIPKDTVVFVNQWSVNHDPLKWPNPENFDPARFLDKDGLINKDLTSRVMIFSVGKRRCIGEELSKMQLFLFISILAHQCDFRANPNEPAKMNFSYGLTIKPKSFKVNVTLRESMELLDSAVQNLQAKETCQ
Description: Drug metabolism in supersomes expressing human recombinant CYP1B1 assessed as enzyme-mediated N-desmethylclozapine metabolite formation at 10 uM after 30 mins measured per nmol of P450 by HPLC analysis.

Data set [3] deals with Cytochrome P450 2C19 (Homo sapiens, UniProt P33261). Description: Drug metabolism in supersomes expressing human recombinant CYP2C19 assessed as enzyme-mediated clozapine-N-oxide metabolite formation at 100 uM after 30 mins measured per nmol of P450 by HPLC analysis.
Data set [4] addresses T3, Cytochrome P450 1A1 (Homo sapiens, UniProt P04798).
T3 sequence (P04798 whole entry): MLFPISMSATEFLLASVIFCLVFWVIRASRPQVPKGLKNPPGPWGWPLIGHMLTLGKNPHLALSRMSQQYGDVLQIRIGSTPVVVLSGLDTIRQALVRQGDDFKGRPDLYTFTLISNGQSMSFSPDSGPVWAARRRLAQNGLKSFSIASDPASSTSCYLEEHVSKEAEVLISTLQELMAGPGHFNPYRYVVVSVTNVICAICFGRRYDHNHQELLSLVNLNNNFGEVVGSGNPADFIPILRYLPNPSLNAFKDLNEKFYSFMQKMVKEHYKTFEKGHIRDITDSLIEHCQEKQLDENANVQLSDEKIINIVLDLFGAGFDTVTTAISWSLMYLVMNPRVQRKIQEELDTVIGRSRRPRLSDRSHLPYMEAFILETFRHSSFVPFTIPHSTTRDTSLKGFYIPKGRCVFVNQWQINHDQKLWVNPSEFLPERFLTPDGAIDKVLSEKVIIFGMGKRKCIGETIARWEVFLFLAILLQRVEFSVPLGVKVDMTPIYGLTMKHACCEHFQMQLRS
Description: Drug metabolism in supersomes expressing human recombinant CYP1A1 assessed as enzyme-mediated total GSH conjugate formation at 100 uM after 30 mins measured per nmol of P450 by HPLC analysis in presence of GSH and hGST P1-1.

In data set [5] the target is T4, Cytochrome P450 2C18 (Homo sapiens, UniProt P33260).
T4 sequence (P33260 whole entry): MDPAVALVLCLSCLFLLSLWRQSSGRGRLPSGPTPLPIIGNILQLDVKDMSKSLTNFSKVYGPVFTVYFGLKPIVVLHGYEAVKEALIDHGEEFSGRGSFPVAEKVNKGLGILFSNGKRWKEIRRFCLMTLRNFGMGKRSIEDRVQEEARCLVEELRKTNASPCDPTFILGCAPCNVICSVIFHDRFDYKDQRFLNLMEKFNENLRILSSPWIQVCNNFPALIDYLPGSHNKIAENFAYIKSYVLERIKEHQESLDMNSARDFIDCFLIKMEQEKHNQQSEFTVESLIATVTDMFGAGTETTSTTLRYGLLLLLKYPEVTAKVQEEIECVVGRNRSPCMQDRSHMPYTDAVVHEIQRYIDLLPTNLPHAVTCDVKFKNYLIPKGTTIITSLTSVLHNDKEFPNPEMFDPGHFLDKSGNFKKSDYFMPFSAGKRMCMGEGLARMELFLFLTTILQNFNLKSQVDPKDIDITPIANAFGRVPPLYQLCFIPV
Put plainly: Drug metabolism in supersomes expressing human recombinant CYP2C18 assessed as enzyme-mediated N-desmethylclozapine metabolite formation at 100 uM after 30 mins measured per nmol of P450 by HPLC analysis.

For data set [6], the target named is T5, Cytochrome P450 1A2 (Homo sapiens, UniProt P05177).
T5 sequence (P05177 whole entry): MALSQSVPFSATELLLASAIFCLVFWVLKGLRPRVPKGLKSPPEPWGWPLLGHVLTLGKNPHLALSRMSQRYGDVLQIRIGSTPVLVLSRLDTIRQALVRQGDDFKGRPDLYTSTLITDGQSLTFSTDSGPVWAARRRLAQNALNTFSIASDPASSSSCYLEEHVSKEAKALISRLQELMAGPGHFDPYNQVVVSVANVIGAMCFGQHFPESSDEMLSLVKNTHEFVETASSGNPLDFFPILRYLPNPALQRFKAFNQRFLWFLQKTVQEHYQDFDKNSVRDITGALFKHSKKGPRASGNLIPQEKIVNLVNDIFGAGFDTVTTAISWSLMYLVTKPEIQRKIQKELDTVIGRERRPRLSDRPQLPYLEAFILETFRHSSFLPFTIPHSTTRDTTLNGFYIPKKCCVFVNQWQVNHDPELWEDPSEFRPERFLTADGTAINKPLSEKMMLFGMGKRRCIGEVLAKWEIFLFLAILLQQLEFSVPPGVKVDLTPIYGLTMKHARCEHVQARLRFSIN
Put plainly: Drug metabolism in supersomes expressing human recombinant CYP1A2 assessed as enzyme-mediated total GSH conjugate formation at 10 uM after 30 mins measured per nmol of P450 by HPLC analysis in presence of GSH and hGST P1-1.

Data set [7] deals with T1, Cytochrome P450 2C9. Description: Drug metabolism in supersomes expressing human recombinant CYP2C9 assessed as enzyme-mediated N-desmethylclozapine metabolite formation at 100 uM after 30 mins measured per nmol of P450 by HPLC analysis.
In data set [8] the target is T5, Cytochrome P450 1A2. Description: Drug metabolism in supersomes expressing human recombinant CYP1A2 assessed as enzyme-mediated clozapine-N-oxide metabolite formation at 10 uM after 30 mins measured per nmol of P450 by HPLC analysis.
Data set [9] addresses T2, Cytochrome P450 1B1. Description: Drug metabolism in supersomes expressing human recombinant CYP1B1 assessed as enzyme-mediated total GSH conjugate formation at 100 uM after 30 mins measured per nmol of P450 by HPLC analysis in presence of GSH and hGST P1-1.
Data set [10] addresses Cytochrome P450 2D6 (Homo sapiens, UniProt P10635). Description: Drug metabolism in supersomes expressing human recombinant CYP2D6 assessed as enzyme-mediated cyanide adduct formation at 100 uM after 30 mins measured per nmol of P450 by HPLC analysis in presence of KCN.

T1 sequence (P11712 whole entry): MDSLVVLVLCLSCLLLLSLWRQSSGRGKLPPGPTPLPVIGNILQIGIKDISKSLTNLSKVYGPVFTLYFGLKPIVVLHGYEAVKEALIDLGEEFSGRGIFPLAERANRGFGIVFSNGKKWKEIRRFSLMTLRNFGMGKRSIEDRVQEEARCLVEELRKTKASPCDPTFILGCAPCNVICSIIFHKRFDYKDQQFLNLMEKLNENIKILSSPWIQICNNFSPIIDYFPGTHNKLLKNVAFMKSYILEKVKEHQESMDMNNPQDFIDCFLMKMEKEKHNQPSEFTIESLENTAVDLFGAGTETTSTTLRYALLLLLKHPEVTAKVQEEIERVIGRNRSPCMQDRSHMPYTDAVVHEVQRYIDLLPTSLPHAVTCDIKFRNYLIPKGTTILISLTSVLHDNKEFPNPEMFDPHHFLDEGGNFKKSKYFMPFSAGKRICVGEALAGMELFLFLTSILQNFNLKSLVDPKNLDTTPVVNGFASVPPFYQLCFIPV
Sequence of Cytochrome P450 2D6 (P10635 whole entry): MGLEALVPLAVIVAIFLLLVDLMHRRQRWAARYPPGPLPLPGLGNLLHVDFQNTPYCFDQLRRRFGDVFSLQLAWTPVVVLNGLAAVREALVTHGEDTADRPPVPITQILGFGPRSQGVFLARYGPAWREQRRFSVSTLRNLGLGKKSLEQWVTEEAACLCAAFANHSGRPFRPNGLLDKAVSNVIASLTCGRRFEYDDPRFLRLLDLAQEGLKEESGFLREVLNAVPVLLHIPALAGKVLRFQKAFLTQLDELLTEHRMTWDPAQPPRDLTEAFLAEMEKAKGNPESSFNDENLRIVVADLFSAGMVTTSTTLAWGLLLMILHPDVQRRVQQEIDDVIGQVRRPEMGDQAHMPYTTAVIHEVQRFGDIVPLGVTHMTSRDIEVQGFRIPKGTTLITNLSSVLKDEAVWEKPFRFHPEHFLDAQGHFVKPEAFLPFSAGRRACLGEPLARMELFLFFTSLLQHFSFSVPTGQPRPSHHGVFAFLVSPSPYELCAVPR
Sequence of Cytochrome P450 2C19 (P33261 whole entry): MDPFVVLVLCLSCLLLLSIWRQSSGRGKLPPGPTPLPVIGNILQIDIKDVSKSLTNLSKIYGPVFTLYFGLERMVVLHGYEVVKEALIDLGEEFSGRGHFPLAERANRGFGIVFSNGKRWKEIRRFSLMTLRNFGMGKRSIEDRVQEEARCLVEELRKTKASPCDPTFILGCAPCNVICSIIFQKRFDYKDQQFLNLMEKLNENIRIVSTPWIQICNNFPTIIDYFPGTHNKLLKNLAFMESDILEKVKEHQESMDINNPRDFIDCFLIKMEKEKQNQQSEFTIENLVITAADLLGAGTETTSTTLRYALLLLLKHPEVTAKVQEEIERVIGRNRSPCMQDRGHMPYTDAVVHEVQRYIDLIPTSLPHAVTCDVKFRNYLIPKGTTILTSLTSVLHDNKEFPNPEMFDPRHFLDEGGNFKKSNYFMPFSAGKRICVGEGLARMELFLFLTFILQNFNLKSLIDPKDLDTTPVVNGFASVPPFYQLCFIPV

Take `CN1CCN(C2=Nc3cc(Cl)ccc3Nc3ccccc32)CC1` [CLOZAPINE]: the Drug metabolism in data set [1] was determined as 0.065 nmol/min; in data set [2], 1.16 nmol/min; in [3], 0.58 nmol/min/nmol P450; in [4], 0.32 nmol/min; in data set [5] it was 5.71 nmol/min/nmol P450; in data set [6] it was 0.06 nmol/min. Moreover, the Drug metabolism in [7] stood at 0.22 nmol/min; in data set [8], 0.55 nmol/min/nmol P450; in [9], 0.15 nmol/min; in data set [10] it was 0.64 nmol/min.
